Earlier results in patent US4370313A, “Nitrofurantoin dosage form” (Eaton Laboratories, Inc., priority 1981, dated 1983).

O=C1CN(/N=C/c2ccc([N+](=O)[O-])o2)C(=O)N1 [nitrofurantoin]
preferred absorption in a limited segment of the human gastrointestinal tract: duodenum | expected urinary level peaks (immediately available dose, conventional dosage forms, human): 2 to 3 h
